Data as given in ChEMBL document CHEMBL3632467, “Tyrokeradines G and H, new bromotyrosine alkaloids from an Okinawan Verongid sponge” (Bioorg Med Chem Lett, 2015).
In brackets after ≈: the same amount, converted by molar mass.

Key:
Staphylococcus aureus = experiment: Antibacterial activity against Staphylococcus aureus; type: functional
Escherichia coli = experiment: Antibacterial activity against Escherichia coli; type: functional
Candida albicans = experiment: Antifungal activity against Candida albicans; type: functional, organism-based
Micrococcus luteus = experiment: Antibacterial activity against Micrococcus luteus; type: functional
Aspergillus niger = experiment: Antifungal activity against Aspergillus niger; type: functional, organism-based
Cryptococcus neoformans = experiment: Antifungal activity against Cryptococcus neoformans; type: functional, organism-based
Bacillus subtilis = experiment: Antibacterial activity against Bacillus subtilis; type: functional
[1] = test system: Trichophyton mentagrophytes; experiment: Antifungal activity against Trichophyton mentagrophytes; type: functional, organism-based

| SMILES | MIC (Staphylococcus aureus) | MIC (Escherichia coli) | IC50 (Candida albicans) | MIC (Micrococcus luteus) | IC50 (Aspergillus niger) | IC50 (Cryptococcus neoformans) | MIC (Bacillus subtilis) | IC50 [1] |
| --- | --- | --- | --- | --- | --- | --- | --- | --- |
| NCCCOc1c(Br)cc(C/C(=N\O)C(=O)NCCC(=O)O)cc1Br | > 32 µg/mL | > 32 µg/mL | > 32 µg/mL | > 32 µg/mL | 32 µg/mL (≈ 66.5 µM) | 16 µg/mL (≈ 33.3 µM) | > 32 µg/mL | > 32 µg/mL |
| O=C(O)/C(Cc1cc(Br)c(OCCC[n+]2ccccc2)c(Br)c1)=N/O | > 32 µg/mL | > 32 µg/mL | > 32 µg/mL | > 32 µg/mL | 32 µg/mL | > 32 µg/mL | > 32 µg/mL | > 32 µg/mL |
